We go through ten compounds from US10730843B1, “Quinoxalines useful as cytoprotective agents” (priority 2019, dated 2020).

Bounds are passed on as bounds.

The subject of experiment [1] is Human embryonic kidney (HEK293) cells; mouse neuroblastoma (N2a) cells. Description: Cell rescue assay: protection against thapsigargin (TG)-induced cell-death (ALAMARBLUE). The conditions noted are these: compound at 20 μM, 2 hrs before thapsigargin (15 μM for HEK293 cells, 1 μM for N2a cells), 24 hrs; viability as % RFU compared to control; cell line not given; read-out: Cell Survival %. The format is cell-based. As to the method: Protection against Thapsigargin (TG)-induced Cell-death. Human embryonic kidney (HEK293) cells were grown in Dulbecco's Modified Eagle's Medium (DMEM) with 10% FBS and 1% antibiotic antimycotic solution (ABAM). Mouse neuroblastoma (N2a) cells were grown in 1:1 DMEM:OPTI-MEM® with 5% FBS and 1% ABAM. All cells were grown in 10% CO2 in a humidified environment of the incubator. Cells grown in 96-well plates were exposed to a test compound (20 μM) for 2 hrs before addition of thapsigargin (15 μM for HEK293 cells and 1 μM for N2a cells) to induce ER stress. After incubation in cell-culture incubator for 24 hrs, ALAMARBLUE® regent (10% v/v) was added to the wells. Fluorescence reading was taken 2 hrs after the addition of the ALAMARBLUE® regent. Cell-viability was calculated as a percentage of relative fluorescence unit (RFU) compared to control. […] The biological results are summarized in Table 2, where each compound was tested at 20 μM and where A represents a viability greater than or equal to 50%, B represents a viability greather than 20% and less than 50%, and C represents a value from 10% to 20%.

A further experiment deals with Ob/ob mice. Description: Effect of a SERCA agonist on the level of blood glucose. It is filed as in vivo. Particulars: Mus musculus, ip, 96 h, 50 mg/kg i.p. once a day for 5 days, fasting glucose at baseline and 4 days after administration, read-out: Glucose level reduction. Here is the method:
Ob/ob mice (10 weeks old, n=7) were intraperitoneally (i.p.) injected with 100 μL of a solution containing 0 (vehicle) or 50 mg/kg of a test compound once a day for a total of 5 days. Fasting glucose was measured at baseline and 4 days after the administration of the test compound. Glucose levels were measured in blood samples drawn from the tail vein using a handheld glucose sensor. Compound effects on blood glucose are shown in Table 5 where A represents a 10-20% reduction in blood glucose, B represents a 21-30% reduction in blood glucose, and C represents a greather than 30% reduction in blood glucose levels.

Another experiment concerns CSM14.1 neuronal cells. Description: Cell survival assay (thapsigargin-induced cell death, CELLTITER-GLO). It is filed as cell-based. Particulars: compound 2 hrs before about 15 μM thapsigargin, overnight (about 16 to 24 hrs), luminescence. Here is the method:
CSM14.1 neuronal cells were maintained in Complete Medium at 32° C.; wherein the Complete Medium contained Dulbecco's modified eagle medium (DMEM) with 10% fetal bovine serum (FSB), 1% L-glutamine, 100 IU/mL penicillin, and 100 μg/mL streptomycin. The cells were recovered from cultures by trypsinization and then seeded in 384 well plates (Greiner #781098) at a concentration of 1,000 cells/well in 20 μL of DMEM Assay Medium, wherein the DMEM Assay Medium contained 2% FBS, 100 IU/mL penicillin, and 100 μg/mL streptomycin. Seeding was performed using a MultiDrop Combi reagent broadcaster. The plates were incubated overnight at 32° C. A test compound was prepared by 2-fold serial dilution in 100% DMSO using a BIOMEK® 2000 liquid handler (Beckman Coulter). A dose-response curve containing 10 concentrations of the test compound was obtained. Using a BIOMEK® FX liquid handler (Beckman Coulter), 2.5 μL of the test compound was transferred from the 100% DMSO serial dilution plate to an intermediate plate containing 47.5 μL of DMEM Assay Medium containing 2% FBS, 100 IU/mL penicillin, and 100 μg/mL streptomycin and mixed. To reduce or eliminate the interference from the compound's precipitation, 6 μL of the diluted compound was immediately transferred to the assay plate to achieve a high compound concentration of 100 μM in 99% DMEM Assay Medium and 1% DMSO. After the assay plates were incubated for 2 hrs, 4 μL of 112.5 μM thapsigargin (TG) (DMSO stock diluted into Assay TC Medium) was dispensed into each testing well with a MultiDrop Combi reagent broadcaster for a final concentration of about 15 μM TG. The tissue culture media (4 μL) containing vehicle only was transferred manually to each control cell using a 16 channel electronic pipette. After the plates were incubated overnight (about 16 to 24 hrs), CELLTITER-GLO® (Promega) (16 μL) was added to all wells and luminescence was measured. High luminescence indicates cell survival. The biological results are summarized in Table 1 where A represents a cell viability EC50 less than or equal to 1 μM, B represents a value greater than 1 μM and less than 10 μM, and C represents a value equal to or greather than 10 μM and less than 20 μM.

The target of the next experiment is T1, SERCA (Homo sapiens, UniProt P16615).
T1 construct: microsomal preparations from HEK 293 cells; endogenous in cells; host or cells: HEK 293 cells (microsomal preparation)
Description: Ca-ATPase assay (NADH-linked, enzyme-coupled ATPase assay). The format is biochemical. The conditions noted are these: microsomal preparations from HEK 293 cells; Vmax from fit of ATPase calcium-dependence to the Hill function, relative to controls. As to the method: A Ca-ATPase assay was performed using microsomal preparations from HEK 293 cells at a series of calcium concentrations corresponding to the physiological range, relative to controls. The ATP hydrolysis rate was measured over a range of calcium concentrations in the presence of test compounds using an NADH-linked, enzyme-coupled ATPase assay adapted for 96-well microplates, with Vmax determined by fitting the ATPase calcium-dependence to the Hill function. Each well contained 2 μg or 7 μg of SR vesicles (optimized for skeletal or cardiac SR, respectively), 50 mM MOPS (pH 7.0), 100 mM KCl, 5 mM MgCl2, 1 mM EGTA, 0.2 mM NADH, 1 mM phosphoenol pyruvate, 5 IU pyruvate kinase, 5 IU lactate dehydrogenase, and 3.5 μg/mL A23187 (a calcium ionophore). CaCl2 was added to set free [Ca^2+] to the specific values. The assay was started upon addition of ATP at a final concentration of 5 mM, and read in a SpectraMax Plus microplate spectrophotometer. The results are summarized in Table 4, where A represents an increase in SERCA Vmax greater than or equal to 50% and B represents a value greater than 10% and less than 50%.

The next experiment concerns Human SH-SY5Y cells. Put plainly: Cell rescue assay: protection against ß-amyloid-induced cell toxicity. The conditions noted are these: 96 h, 7.5 uM compound, AB1-42 at 10 uM, 4 days, % cell rescue, read-out: Cell Survival %. It is filed as cell-based. As to the method:
Protection against ß-amyloid-induced cell toxicity. Chonpathompikunlert et al. Eu. J. Pharmacol. 2011, 650, 544-549. Human SH-SY5Y cells are suspended in media containing 2% FBS and 2× Gentamicin. Transfer 100 ul/well culture to 96-well plate (20,000 cells/well; passage #5) and incubate overnight. Prepare compound samples at 30 uM. Add 50 ul of the samples to the cells [[…]] and incubate 3 hours. Make stock of 40 uM AB1-42 peptide in assay media. Transfer 50 ul/well to cells/compounds in assay plate. The final assay volume is 200 ul/well, containing 2% FBS, 2× Gentamicin, 7.5 uM compound and AB1-42 at 10 uM. Incubate for 4 days then add 20 ul of Promega Substrate Cell Titer 96 Aqueous One Solution Reagent to each well. Incubate 37° C. and read OD at 490 nm. The results are summarized in Table 3, where A represents a value equal to or greater than 50% cell rescue, B represents a value greater than 20% and less than 50% cell rescue, and C represents a value greater than 10% and less than or equal to 20% cell rescue.

T1 sequence (P16615 whole entry): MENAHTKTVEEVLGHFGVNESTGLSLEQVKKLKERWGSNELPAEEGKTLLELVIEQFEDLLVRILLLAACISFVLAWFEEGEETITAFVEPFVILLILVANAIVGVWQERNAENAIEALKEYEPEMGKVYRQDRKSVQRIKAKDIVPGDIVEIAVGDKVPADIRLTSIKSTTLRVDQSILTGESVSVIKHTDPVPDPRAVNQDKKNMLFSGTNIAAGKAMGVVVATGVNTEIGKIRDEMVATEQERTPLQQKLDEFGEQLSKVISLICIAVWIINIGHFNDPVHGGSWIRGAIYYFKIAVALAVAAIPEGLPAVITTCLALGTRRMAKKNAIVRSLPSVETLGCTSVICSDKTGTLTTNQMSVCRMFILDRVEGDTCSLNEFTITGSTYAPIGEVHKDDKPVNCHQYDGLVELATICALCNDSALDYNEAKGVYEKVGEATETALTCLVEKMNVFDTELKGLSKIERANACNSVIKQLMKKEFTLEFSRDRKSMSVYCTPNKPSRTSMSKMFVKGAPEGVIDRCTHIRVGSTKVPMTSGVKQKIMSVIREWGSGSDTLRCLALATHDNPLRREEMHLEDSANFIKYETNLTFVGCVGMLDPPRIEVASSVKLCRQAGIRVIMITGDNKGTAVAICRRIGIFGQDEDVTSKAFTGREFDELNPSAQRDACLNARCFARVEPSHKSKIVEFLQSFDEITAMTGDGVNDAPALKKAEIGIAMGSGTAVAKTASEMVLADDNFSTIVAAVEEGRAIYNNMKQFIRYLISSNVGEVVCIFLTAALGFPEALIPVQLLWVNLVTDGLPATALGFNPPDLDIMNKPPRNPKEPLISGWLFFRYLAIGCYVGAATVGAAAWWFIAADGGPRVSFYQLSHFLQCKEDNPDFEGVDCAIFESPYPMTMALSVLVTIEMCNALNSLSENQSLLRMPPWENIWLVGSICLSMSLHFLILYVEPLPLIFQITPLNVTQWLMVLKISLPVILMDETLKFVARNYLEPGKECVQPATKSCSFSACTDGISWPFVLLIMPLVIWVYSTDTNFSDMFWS

For `O=C(Nc1cccc2nccnc12)c1cccs1` [A5, N-(Quinoxalin-5-yl)thiophene-2-carboxamide], in experiment [1], the viability at 20 µM lay in the range of 10 to 20%. Besides, the inhibition in vivo at 50 mg/kg in the experiment with Ob/ob mice is greater than 30%. In the experiment on CSM14.1 neuronal cells, this compound came in with an EC50 of 10 to 20 µM. Further, the “SERCA Vmax Increase” value on SERCA is listed as “A (A represents an increase in SERCA Vmax greater than or equal to 50%)”. In the experiment with Human SH-SY5Y cells, the viability at 7.5 µM lay within 20 to 50%.

`CC(C)Oc1cccc(C(=O)Nc2cccc3nccnc23)c1` [A8, 3-Isopropoxy-N-(quinoxalin-5-yl)benzamide]: the viability at 20 µM in experiment [1] lay in the range of 20 to 50%. The inhibition in vivo at 50 mg/kg in the experiment with Ob/ob mice lay within 21 to 30%. This compound also yielded an EC50 with CSM14.1 neuronal cells of 10 to 20 µM. For the same compound, the “SERCA Vmax Increase” value on SERCA is “B (B represents a value greater than 10% and less than 50%)”. Also, in the experiment on Human SH-SY5Y cells, the viability at 7.5 µM lay in the range of 20 to 50%.

For `Cc1ccc(C(=O)Nc2cccc3nccnc23)s1` [A4, 5-Methyl-N-(quinoxalin-5-yl)thiophene-2-carboxamide], in experiment [1], the viability at 20 µM is no less than 50%. The inhibition in vivo at 50 mg/kg in the experiment with Ob/ob mice lay in the range of 10 to 20%. In the experiment on CSM14.1 neuronal cells, the EC50 is 1 to 10 µM. Moreover, the “SERCA Vmax Increase” value on SERCA was “A (A represents an increase in SERCA Vmax greater than or equal to 50%)”. For the same compound, in the experiment with Human SH-SY5Y cells, the viability at 7.5 µM is no less than 50%.

For `O=C(Nc1cccc2nccnc12)c1cc(Br)cs1` [A2, 4-Bromo-N-(quinoxalin-5-yl)thiophene-2-carboxamide], the viability at 20 µM in experiment [1] lay in the range of 20 to 50%. Moreover, the inhibition in vivo at 50 mg/kg with Ob/ob mice fell in the range of 21 to 30%. The same compound yielded an EC50 with CSM14.1 neuronal cells of 1 to 10 µM. In addition, the “SERCA Vmax Increase” value at SERCA is “B (B represents a value greater than 10% and less than 50%)”. Moreover, in the experiment with Human SH-SY5Y cells, the viability at 7.5 µM lay in the range of 10 to 20%.

With `O=C(Nc1cccc2nccnc12)c1cccc(F)c1` [A10, 3-fluoro-N-(quinoxalin-5-yl)benzamide], the viability at 20 µM in experiment [1] was 10 to 20%. Moreover, in the experiment on Ob/ob mice, the inhibition in vivo at 50 mg/kg is greater than 30%. Also, the EC50 in the experiment on CSM14.1 neuronal cells was 1 to 10 µM. Also, at SERCA, the “SERCA Vmax Increase” value is listed as “A (A represents an increase in SERCA Vmax greater than or equal to 50%)”. Also, the viability at 7.5 µM in the experiment with Human SH-SY5Y cells fell in the range of 20 to 50%.

As for `CC(C)Oc1ccc(C(=O)Nc2cccc3nccnc23)cc1` [A1, 4-Isopropoxy-N-(quinoxalin-5-yl)benzamide], the viability at 20 µM in experiment [1] is 20 to 50%. Besides, the inhibition in vivo at 50 mg/kg with Ob/ob mice was in the range of 21 to 30%. The EC50 in the experiment on CSM14.1 neuronal cells was 1 to 10 µM. Moreover, the “SERCA Vmax Increase” value on SERCA is listed as “A (A represents an increase in SERCA Vmax greater than or equal to 50%)”. The viability at 7.5 µM with Human SH-SY5Y cells was no less than 50%.

Regarding `O=C(Nc1cccc2nccnc12)c1ccc(Br)s1` [A3, 5-Bromo-N-(quinoxalin-5-yl)thiophene-2-carboxamide], in experiment [1], the viability at 20 µM fell in the range of 10 to 20%. For the same compound, the inhibition in vivo at 50 mg/kg in the experiment on Ob/ob mice fell in the range of 10 to 20%. In the experiment on CSM14.1 neuronal cells, the EC50 was 10 to 20 µM. In addition, the “SERCA Vmax Increase” value on SERCA is “A (A represents an increase in SERCA Vmax greater than or equal to 50%)”. The viability at 7.5 µM in the experiment with Human SH-SY5Y cells was 20 to 50%.

For `O=C(Nc1cccc2nccnc12)c1ccc(Cl)cc1` [A7, 4-Chloro-N-(quinoxalin-5-yl)benzamide], in experiment [1], the viability at 20 µM was no less than 50%. Also, the inhibition in vivo at 50 mg/kg with Ob/ob mice fell in the range of 10 to 20%. For the same compound, in the experiment with CSM14.1 neuronal cells, the EC50 was no more than 1 µM. In addition, the “SERCA Vmax Increase” value at SERCA was “B (B represents a value greater than 10% and less than 50%)”. The viability at 7.5 µM with Human SH-SY5Y cells is 20 to 50%.

For `O=C(Nc1cccc2nccnc12)c1ccc(C(F)(F)F)cc1` [A9, N-(quinoxalin-5-yl)-4-(trifluoromethyl)benzamide], in experiment [1], the viability at 20 µM fell in the range of 20 to 50%. The inhibition in vivo at 50 mg/kg in the experiment with Ob/ob mice was in the range of 21 to 30%. In the experiment with CSM14.1 neuronal cells, this compound registered an EC50 of no more than 1 µM. Also, the “SERCA Vmax Increase” value on SERCA was “A (A represents an increase in SERCA Vmax greater than or equal to 50%)”. Also, the viability at 7.5 µM in the experiment on Human SH-SY5Y cells fell in the range of 10 to 20%.

Take `O=C(Nc1cccc2nccnc12)c1cc2ccccc2s1` [A6, N-(Quinoxalin-5-yl)benzo[b]thiophene-2-carboxamide]: the viability at 20 µM in experiment [1] was in the range of 10 to 20%. Also, in the experiment with Ob/ob mice, the inhibition in vivo at 50 mg/kg was in the range of 10 to 20%. For the same compound, the EC50 in the experiment on CSM14.1 neuronal cells is 1 to 10 µM. Further, the “SERCA Vmax Increase” value at SERCA is “B (B represents a value greater than 10% and less than 50%)”. Besides, the viability at 7.5 µM in the experiment with Human SH-SY5Y cells lay in the range of 20 to 50%.
